Reference: patent publication US8604003B2, “Promoter for hard tissue formation” (Seikagaku Corporation, priority 2005, dated 2013)
“Also recorded” adds a separate entry of the source.

How the values were obtained:
[1] = system: cell strain MC3T3-E1; test: Actions on cell growth, cell number by Coulter counter; format: cell-based, mouse; settings: 50 μg/ml sample, αMEM containing 2% FBS, days 0, 1, 3, 6 (FIG. 8)
Description: (§1) Respective cells were inoculated onto a 24 well culture plate (manufactured by Falcon) in 5×10^3 cells/well portions. Starting on the first day after the inoculation, each sample to be tested (Hep, 2DSH, 6DSH or NDSH) was added to the culture liquid (αMEM containing 2% FBS) to a final concentration of 50 μg/ml. On the zero day, first day, third day and sixth day after addition of the sample to be tested, the number of cells was counted using a Coulter counter (COULTER Z1, manufactured by Coulter Electronics Inc.). A case in which the sample to be tested was not added was used as the control.

[2] = system: cell strain ST2; test: as above; format: cell-based, mouse; settings: 50 μg/ml sample, αMEM containing 2% FBS, days 0, 1, 3, 6 (FIG. 9)
Description: as §1

[3] = system: cell strain MC3T3-E1; test: Cellular ALP activity (Bessey-Lowry method), 2% FBS-containing αMEM; format: cell-based, mouse; settings: 50 μg/ml sample, first week after confluence, vs control without sample (FIG. 1, FIG. 2)
Description: (§2) A mouse bone marrow-derived mesenchymal cell strain, ST2 cell strain, and a mouse osteoblast-like cell strain having more high differentiation degree, MC3T3-E1 cell strain, (both obtained from RIKEN CELL BANK), were used. In the following, culturing of these cells was carried out all under a condition of 37° C. and 5% CO2. Additionally, antibiotics (100 U/ml in final concentration of penicillin G, 100 μg/ml in final concentration of streptomycin and 250 μg/ml in final concentration of gentamicin) were allowed to coexist in all of the media to be used for the culturing of these cells.
(§3) Cellular ALP activity was measured as the index of cell differentiation. Cells were inoculated onto a 24 well culture plate at a density of 5×10^3 cells/well and cultured by adding 50 μg/ml in final concentration of each sample to 2% FBS-containing αMEM. On the first week after the cells reached confluent, ALP activity was measured by the following enzymologic method (Bessey-Lowry method).
(§4) After washing the cultured cells with PBS, the cells were disrupted and stirred for 40 seconds in 10 mM Tris-HCl buffer (pH 7.4, 500 μl) using an ultra sonic homogenizer (Handy Sonic model UR-20P; mfd. by Tomy Seiko Co., Ltd.). Next, 25 μl of the sample liquid was added to 125 μl of an ALP buffer (0.1M carbonate buffer pH 9.8, 6.7 mM p-nitrophenyl phosphate, 2 mM MgCl2) and incubated at 37° C. for 30 minutes. After terminating the reaction by adding 125 μL of 0.2 N NaOH, the absorbance at 405 nm was measured by using a microplate reader (Model 550, manufactured by Bio-Rad Laboratories). The calculated ALP activity was shown by unit per the number of cells. Additionally, a case in which the sample to be tested was not added was used as a control.
(§5) The results in which each sample to be tested was added to the cell strain MC3T3-E1 are shown in FIG. 1, and the results in which a sample to be tested (Hep, 2DSH, 6DSH or NDSH) was added to the cell strain MC3T3-E1 are shown in FIG. 2, and the results in which a sample to be tested (Hep, 2DSH, 6DSH or NDSH) was added to the cell strain ST2 are shown in FIG. 3, respectively.

[4] = system: cell strain ST2; test: as above; format: cell-based, mouse; settings: 50 μg/ml sample, first week after confluence, vs control without sample (FIG. 3)
Description: as §2, §3, §4, §5

[5] = system: Wistar rat; test: Transplantation under the cranial periosteum, ratio of area of bone tissue to total tissues (image analysis); format: in vivo; settings: 3 mg/ml sample on hydroxyapatite, fourth, eighth and twelfth week (FIG. 7)
Description: (§6) A Wistar rat of 8 weeks of age was subjected to general anesthesia with ethyl carbamate 20 solution at a dose of 0.5 ml per 100 g body weight, and then the forehead skin and periosteum were incised. Each sample to be tested (Hep, 2DSH, 6DSH or NDSH; 100 μl for each) diluted to a concentration of 3 mg/ml with PBS was transplanted under the cranial periosteum. In this case, hydroxyapatite was used as the carrier.
(§7) Specifically, a block of hydroxyapatite (size: 3 mm in length×2 mm in breadth×2 mm in height; adsorbs about 0.1 ml of solution) was soaked for 30 minutes in each sample to be tested of a concentration of 3 mg/ml. It was used for the transplantation.
In the same manner as in the aforementioned “5. Actions on cell differentiation (5)”, slices of the transplanted parts were prepared by sacrificing each animal on the fourth week, eighth week and twelfth week after transplantation of the sample to be tested (n=5 for each group). Ratio of the area of bone tissue to the area of the total tissues observed in the image of the slices of transplanted region was analyzed using an image analyzing software (Scion image; Scion Corporation). In this connection, the bars of respective weeks in FIG. 7 show the results in the control group, 2DSH group, 6DSH group, NDSH group and Hep group, respectively, starting from the left side.

[6] = system: Wistar rat; test: Transplantation under the cranial periosteum on hydroxyapatite carrier, HE staining, formation of hard tissue (bone); format: in vivo; settings: 3 mg/ml sample on hydroxyapatite under cranial periosteum, fourth and eighth week
Description: as §6, §7
A substance in which test sample-free PBS was used was used as the control.
Each animal was sacrificed on the fourth week and eighth week after transplantation of the sample to be tested. Then slices of the transplanted parts were prepared and subjected to hematoxylin-eosin staining (HE staining). It was observed under an optical microscope to evaluate degree of the formation of a hard tissue (bone).

[7] = system: cell strain MC3T3-E1; test: Cellular ALP activity, serum-free medium; format: cell-based, mouse; settings: 50 μg/ml sample, serum-free medium (FIG. 4)
Description: as §2
(§8) Cellular ALP activity was measured as the index of cell differentiation. […] On the first week after the cells reached confluent, ALP activity was measured by the following enzymologic method (Bessey-Lowry method).
as §4
(§9) The results of adding each sample to be tested (Hep, 2DSH, 6DSH or NDSH) to the cell strain MC3T3-E1 are shown in FIG. 4, and the results of adding each sample to be tested (Hep, 2DSH, 6DSH or NDSH) to the cell strain ST2 are shown in FIG. 5, respectively. In this connection, the calculated ALP activity was shown by a numerical value of cells per DNA weight.

[8] = system: cell strain ST2; test: Cellular ALP activity, serum-free medium; format: cell-based, mouse; settings: 50 μg/ml sample, serum-free medium (FIG. 5)
Description: as §2, §8, §4, §9

[9] = system: cell strain MC3T3-E1; test: Calcification ability, alizarin staining; format: cell-based, mouse; settings: MC3T3-E1, 50 μg/ml sample, first week after confluence
Description: as §3
(§10) In order to examine calcification ability of the cells, alizarin staining (ALZ staining; stained in red indicates accelerated calcification) was carried out in accordance with the usual way, in the aforementioned “Actions on cell differentiation (1)” on the first week after the cells reached confluent. The cells were washed with PBS, fixed with 10 neutral-buffered formalin and then stained with 0.01 Alizarin Red S (manufactured by Wako Pure Chemical Industries).

[10] = system: cell strain ST2; test: Calcification ability, alizarin staining; format: cell-based, mouse; settings: ST2, 50 μg/ml sample, first week after confluence
Description: as §3, §10

[11] = system: Wistar rat; test: Transplantation under the cranial periosteum, ratio of area of formed bone to hydroxyapatite region (image analysis); format: in vivo; settings: 3 mg/ml sample on hydroxyapatite, fourth week and sixth week (FIG. 6)
Description: as §6, §7
In the same manner as in the aforementioned “5. Actions on cell differentiation (5)”, slices of the transplanted parts were prepared by sacrificing each animal on the fourth week and sixth week after transplantation of the sample to be tested (n=2 for each group). Ratio of the area of formed bone (hard tissue) to the area of the hydroxyapatite region observed in the image of said slice was analyzed by using an image analyzing software (Scion image; Scion Corporation).

Substance	growth of the cell strain MC3T3-E1 (number of cells) [1]	growth of the cell strain ST2 (number of cells) [2]	ALP activity of the cell strain MC3T3-E1 [3]	ALP activity of the cell strain ST2 [4]	ratio of the area of bone tissue to the area of the total tissues [5]	formation of bone (HE staining, optical microscope) [6]	ALP activity of the cell strain MC3T3-E1 under the serum-free condition [7]	ALP activity of the cell strain ST2 under the serum-free condition [8]	formation of calcification matter (alizarin staining) [9]	formation of calcification matter (alizarin staining) [10]	ratio of the area of formed bone (hard tissue) to the area of the hydroxyapatite region [11]
2-O-desulfated heparin [2DSH]	small in comparison with that of Hep; also recorded: suppress growth	accelerated growth	increased the ALP activity	increased the ALP activity	formation of bone (hard tissue) was confirmed within a broad range; also recorded: remarkable	formation of bone was observed; also recorded: Remarkable bone formation	increased the ALP activity; also recorded: particularly effective	increased the ALP activity; also recorded: particularly effective	accelerated formation of calcification matter	accelerated formation of calcification matter; also recorded: strong acceleration	formation of bone (hard tissue) was confirmed within a broad range; also recorded: remarkable
6-O-desulfated heparin [6DSH]	small in comparison with that of Hep; also recorded: suppress growth		increased the ALP activity	increased the ALP activity	formation of bone (hard tissue) was confirmed within a broad range	formation of bone was observed	increased the ALP activity	increased the ALP activity	accelerated formation of calcification matter	accelerated formation of calcification matter	formation of bone (hard tissue) was confirmed within a broad range
N-desulfated heparin [NDSH]	small in comparison with that of Hep; also recorded: suppress growth		increased the ALP activity	increased the ALP activity; also recorded: particularly effective	formation of bone (hard tissue) was confirmed within a broad range; also recorded: remarkable	formation of bone was observed	increased the ALP activity; also recorded: particularly effective	increased the ALP activity	accelerated formation of calcification matter	accelerated formation of calcification matter; also recorded: strong acceleration	formation of bone (hard tissue) was confirmed within a broad range; also recorded: remarkable
heparin [reference compound]	suppress growth	suppressed it	increased the ALP activity; also recorded: particularly effective	increased the ALP activity	formation of bone (hard tissue) was confirmed within a broad range; also recorded: remarkable	formation of bone was observed	increased the ALP activity; also recorded: particularly effective	increased the ALP activity	accelerated formation of calcification matter	accelerated formation of calcification matter; also recorded: strong acceleration	formation of bone (hard tissue) was confirmed within a broad range
